Biological target: T1, human GLP-1 receptor (Homo sapiens, UniProt P43220)
T1 construct: expressed in transfected cells
Experiment: GLP-1R cAMP Assay
Type: cell-based
Conditions: cAMP accumulation in CHO cells stably overexpressing the human GLP-1 receptor; 30 min treatment; HitHunter cAMP kit; read-out: EC50
Summary of the method: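 CHO cells stably overexpressing human GLP-1R, 10,000 cells/well, treated with compound in 20-point dose response in triplicate for 30 min. cAMP accumulation read by enzyme-complementation luminescence after lysis and overnight incubation; dose-response curves fitted.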

T1 sequence (P43220 24-463): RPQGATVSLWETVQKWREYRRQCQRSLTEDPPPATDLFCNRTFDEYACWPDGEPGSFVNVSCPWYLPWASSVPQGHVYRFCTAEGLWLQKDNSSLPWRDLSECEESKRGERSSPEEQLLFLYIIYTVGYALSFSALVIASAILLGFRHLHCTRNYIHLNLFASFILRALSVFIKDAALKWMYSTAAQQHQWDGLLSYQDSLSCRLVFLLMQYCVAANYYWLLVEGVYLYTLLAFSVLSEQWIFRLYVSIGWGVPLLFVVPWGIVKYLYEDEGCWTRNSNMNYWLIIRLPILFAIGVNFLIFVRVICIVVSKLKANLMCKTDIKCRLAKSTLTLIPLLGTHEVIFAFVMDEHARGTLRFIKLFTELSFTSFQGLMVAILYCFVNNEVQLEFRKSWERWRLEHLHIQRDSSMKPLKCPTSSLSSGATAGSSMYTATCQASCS

O=C(O)c1ccc2nc(CN3CCC(Oc4ccnc(COc5ccc(Cl)cc5Cl)c4)CC3)n(Cc3ccno3)c2c1 [Compound 257, 2-{[4-({2-[(2,4-dichlorophenoxy)methyl]pyridin-4-yl}oxy)piperidin-1-yl]methyl}-1-[(1,2-oxazol-5-yl)methyl]-1H-1,3-benzodiazole-6-carboxylic acid]
EC50: < 50 nM

O=C(O)c1ccc2nc(CN3CCC(Oc4ccnc(COc5ccc(C(F)F)cc5F)n4)CC3)n(C[C@@H]3CCO3)c2c1 [Compound 311]
EC50: < 50 nM

C[C@H]1C[C@H](Oc2cccc(COc3ccc(Cl)cc3F)n2)CCN1Cc1nc2ccc(C(=O)O)cc2n1C[C@@H]1CCO1 [Compound 290, 2-{[(2S,4R)-4-({6-[(4-chloro-2-fluorophenoxy)methyl]pyridin-2-yl}oxy)-2-methylpiperidin-1-yl]methyl}-1-{[(2S)-oxetan-2-yl]methyl}-1H-1,3-benzodiazole-6-carboxylic acid]
EC50: < 50 nM

C[C@H]1C[C@@H](Oc2cccc(COc3ccc(C#N)cc3F)c2)CCN1Cc1nc2c(F)cc(C(=O)O)cc2n1C[C@@H]1CCO1 [Compound 320]
EC50: < 50 nM

O=C(O)c1ccc2nc(CN3CCC(Cc4cnc(COc5ccc(Cl)cc5Cl)o4)CC3)n(C[C@@H]3CCO3)c2c1 [Example 60, (S)-2-((4-((2-((2,4-Dichlorophenoxy)methyl)oxazol-5-yl)methyl)piperidin-1-yl)methyl)-1-(oxetan-2-ylmethyl)-1H-benzo[d]imidazole-6-carboxylic acid]
EC50: < 50 nM

Cc1ccc(Oc2cccc(C(=O)N3CCN(Cc4nc5ccc(C(=O)O)cc5n4C[C@@H]4CCO4)CC3)c2)c(C)c1 [Compound 18, 2-({4-[3-(2,4-dimethylphenoxy)benzoyl]piperazin-1-yl}methyl)-1-{[(2S)-oxetan-2-yl]methyl}-1H-1,3-benzodiazole-6-carboxylic acid]
EC50: 50 to 500 nM

CCn1cncc1Cn1c(CN2CCC(CF)(Cc3ccnc(COc4ccc(Cl)cc4Cl)c3)CC2)nc2ccc(C(=O)O)cc21 [Example 164, 2-((4-((2-((2,4-Dichlorophenoxy)methyl)pyridin-4-yl)methyl)-4-(fluoromethyl)piperidin-1-yl)methyl)-1-((1-ethyl-1H-imidazol-5-yl)methyl)-1H-benzo[d]imidazole-6-carboxylic acid]
EC50: < 50 nM

CCn1cncc1Cn1c(CN2CCC(Oc3cccc(COc4ncc(Cl)cc4F)c3)CC2)nc2ccc(C(=O)O)cc21 [Compound 294]
EC50: 50 to 500 nM

N#Cc1ccc(OCc2cc(OC3CCN(Cc4nc5ccc(C(=O)O)cc5n4C[C@@H]4CCO4)CC3)ccn2)c(F)c1 [Compound 277, 2-{[4-({2-[(4-cyano-2-fluorophenoxy)methyl]pyridin-4-yl}oxy)piperidin-1-yl]methyl}-1-{[(2S)-oxetan-2-yl]methyl}-1H-1,3-benzodiazole-6-carboxylic acid]
EC50: < 50 nM

O=C(O)c1ccc2nc(CN3CCN(C(=O)c4ccc(COc5ccc(Cl)cc5)o4)CC3)n(C[C@@H]3CCO3)c2c1 [Compound 31, 2-[(4-{5-[(4-chlorophenoxy)methyl]furan-2-carbonyl}piperazin-1-yl)methyl]-1-{[(2S)-oxetan-2-yl]methyl}-1H-1,3-benzodiazole-6-carboxylic acid]
EC50: > 500 nM

COC1(Cn2c(CN3CCC(Oc4ccnc(COc5ccc(Cl)cc5F)c4)CC3)nc3ccc(C(=O)O)cc32)CC1 [Example 368, 2-((4-((2-((4-Chloro-2-fluorophenoxy)methyl)pyridin-4-yl)oxy)piperidin-1-yl)methyl)-1-((1-methoxycyclopropyl)methyl)-1H-benzo[d]imidazole-6-carboxylic acid]
EC50: < 50 nM

N#Cc1cc(Cl)ccc1OCc1cccc(CC2CCN(Cc3nc4ccc(C(=O)O)cc4n3Cc3ncco3)CC2)c1 [Compound 159, 2-{[4-({3-[(4-chloro-2-cyanophenoxy)methyl]phenyl}methyl)piperidin-1-yl]methyl}-1-[(1,3-oxazol-2-yl)methyl]-1H-1,3-benzodiazole-6-carboxylic acid]
EC50: < 50 nM

Cc1ccc(OCc2ccc(C(=O)N3CCN(Cc4nc5ccc(C(=O)O)cc5n4C[C@@H]4CCO4)CC3)o2)c(C)c1 [Compound 41, 2-[(4-{5-[(2,4-dimethylphenoxy)methyl]furan-2-carbonyl}piperazin-1-yl)methyl]-1-{[(2S)-oxetan-2-yl]methyl}-1H-1,3-benzodiazole-6-carboxylic acid]
EC50: 50 to 500 nM

Cc1ccc(Cc2cccc(C(=O)N3CCN(Cc4nc5ccc(C(=O)O)cc5n4C[C@@H]4CCO4)CC3)c2)c(Cl)c1 [Example 32, (S)-2-((4-(3-(2-Chloro-4-methylbenzyl)benzoyl)piperazin-1-yl)methyl)-1-(oxetan-2-ylmethyl)-1H-benzo[d]imidazole-6-carboxylic acid]
EC50: 50 to 500 nM

O=C(O)c1ccc2nc(CN3CCC(Oc4cccc(COc5ccc(C(F)F)cc5F)c4)CC3)n(C[C@@H]3CCO3)c2c1 [Compound 301]
EC50: < 50 nM

O=C(O)c1ccc2nc(CN3CCC(Cc4cnc(COc5cnc(C6CC6)cc5Cl)o4)CC3)n(C[C@@H]3CCO3)c2c1 [Example 154, (S)-2-((4-((2-(((4-Chloro-6-cyclopropylpyridin-3-yl)oxy)methyl)oxazol-5-yl)methyl)piperidin-1-yl)methyl)-1-(oxetan-2-ylmethyl)-1H-benzo[d]imidazole-6-carboxylic acid]
EC50: 50 to 500 nM

CCn1cncc1Cn1c(CN2CCN(C(=O)c3cccc(N(C)c4ccc(C)cc4)c3)CC2)nc2ccc(C(=O)O)cc21 [Example 46, 1-((1-Ethyl-1H-imidazol-5-yl)methyl)-2-((4-(3-(methyl(p-tolyl)amino)benzoyl)piperazin-1-yl)methyl)-1H-benzo[d]imidazole-6-carboxylic acid]
EC50: 50 to 500 nM

CCn1cncc1Cn1c(CN2CCC(CO)(Cc3ccnc(COc4ccc(Cl)cc4Cl)c3)CC2)nc2ccc(C(=O)O)cc21 [Example 150, 2-((4-((2-((2,4-Dichlorophenoxy)methyl)pyridin-4-yl)methyl)-4-(hydroxymethyl)piperidin-1-yl)methyl)-1-((1-ethyl-1H-imidazol-5-yl)methyl)-1H-benzo[d]imidazole-6-carboxylic acid]
EC50: < 50 nM

C[C@H]1C[C@@H](Oc2ccnc(COc3ccc(C#N)cc3F)n2)CCN1Cc1nc2ncc(C(=O)O)cc2n1C[C@@H]1CCO1 [Compound 513, 2-{[(2S,4S)-4-({2-[(4-cyano-2-fluorophenoxy)methyl]pyrimidin-4-yl}oxy)-2-methylpiperidin-1-yl]methyl}-1-{[(2S)-oxetan-2-yl]methyl}-1H-imidazo[4,5-b]pyridine-6-carboxylic acid]
EC50: < 50 nM

O=C(c1ccc(-c2nnn[nH]2)nc1)N1CCC(Cc2ccc(COc3ccc(Cl)cc3Cl)o2)CC1 [Compound 107, 5-[4-({5-[(2,4-dichlorophenoxy)methyl]furan-2-yl}methyl)piperidine-1-carbonyl]-2-(1H-1,2,3,4-tetrazol-5-yl)pyridine]
EC50: > 500 nM

Cc1ccc(OCc2cccc(CC3CCN(Cc4nc5ccc(C(=O)O)cc5n4C[C@@H]4CCO4)CC3)n2)c(C#N)c1 [Example 114, (S)-2-((4-((6-((2-Cyano-4-methylphenoxy)methyl)pyridin-2-yl)methyl)piperidin-1-yl)methyl)-1-(oxetan-2-ylmethyl)-1H-benzo[d]imidazole-6-carboxylic acid]
EC50: < 50 nM
